Ends that are not written are not given here.
Tests used:
gamma carboxylase = biological target: T1, gamma carboxylase (Homo sapiens, UniProt P38435); conditions: thiol-specific inhibitors; cited from earlier work
T1 sequence (P38435 1-758): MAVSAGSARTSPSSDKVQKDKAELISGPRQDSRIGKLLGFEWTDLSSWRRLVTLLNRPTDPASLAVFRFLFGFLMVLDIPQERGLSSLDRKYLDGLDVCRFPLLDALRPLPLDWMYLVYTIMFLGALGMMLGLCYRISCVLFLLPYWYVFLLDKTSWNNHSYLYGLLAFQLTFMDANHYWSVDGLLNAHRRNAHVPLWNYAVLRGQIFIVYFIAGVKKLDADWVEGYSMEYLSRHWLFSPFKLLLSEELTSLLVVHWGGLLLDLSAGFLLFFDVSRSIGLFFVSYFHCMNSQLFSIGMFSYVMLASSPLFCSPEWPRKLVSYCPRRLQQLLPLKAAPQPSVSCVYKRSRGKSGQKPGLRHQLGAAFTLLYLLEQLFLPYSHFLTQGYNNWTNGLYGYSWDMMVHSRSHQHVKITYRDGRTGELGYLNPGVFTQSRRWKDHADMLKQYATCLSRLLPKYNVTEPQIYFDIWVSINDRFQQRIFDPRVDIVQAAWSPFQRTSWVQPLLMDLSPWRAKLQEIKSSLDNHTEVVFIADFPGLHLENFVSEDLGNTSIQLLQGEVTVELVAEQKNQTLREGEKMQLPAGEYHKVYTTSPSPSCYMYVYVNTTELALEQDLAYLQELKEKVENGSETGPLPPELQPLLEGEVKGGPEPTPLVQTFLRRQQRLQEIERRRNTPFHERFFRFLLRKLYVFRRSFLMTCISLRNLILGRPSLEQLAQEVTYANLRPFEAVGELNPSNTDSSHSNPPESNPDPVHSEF

Wild type adipocytes = assay: Adiponectin expression in wt adipocytes treated with osteocalcin (real time PCR); type: cell-based, mouse
Description: (§1) FIG. 7. Esp−/− Mice Are a Model of Increased Osteocalcin Bioactivity. (A-G) Comparison between 6-week-old WT, Esp−/, Ocn+/−, and Esp−/−; Ocn+/− mice. (A) Blood glucose levels. (B) Serum insulin levels. (C) Serum adiponectin levels. (D) GTT. (E) ITT. (F) GSIS test. (G) Quantification of the number of Ki67-immunoreactive cells in pancreatic islets. […] (J) Expression of Adiponectin in WT adipocytes cocultured with osteoblasts treated with warfarin or vehicle. (K) Expression of Adiponectin in WT adipocytes cultured in presence of vehicle or of 1 ng/ml of commercially available carboxylated osteocalcin (Immunotopics) or bacterially produced uncarboxylated osteocalcin. (L) Expression of Insulin and Cyclin D1 in WT islets cultured in presence of 0.3 ng/ml of bacterially produced uncarboxylated osteocalcin or vehicle. (M) Metabolic parameters and total serum osteocalcin levels in control and obese patients. (N-O) Quantification of carboxylated osteocalcin (HA-bound osteocalcin) in control and obese patients. In (A)-(C) and (G)-(L): *p<0.05 versus WT (Student's t test); in (D)-(F), °p<0.05 versus WT and *p % 0.001 versus WT (ANOVA followed by post hoc analysis).
FIG. 15. […] Wt adipocytes were treated for 4 hours with recombinant full-length osteocalcin (1-46) or a truncated form (1-36) or vehicle. Adiponectin expression was then quantified by real time PCR.
Primary adipocytes were isolated from epididymal fat pads by collagenase digestion. Briefly, minced adipose tissue was digested by 1 mg/ml collagenase P in KRP Buffer (20 mM HEPES, 120 mM NaCl, 6 mM KCl, 1.2 mM MgSO4, 1 mM CaCl2, 0.6 mM Na2HPO4, 0.4 mM NaH2PO4, 2.5 mM D-glucose, 2% BSA, pH 7.4) for 1 h at 37° C. The isolated cells were washed twice with KRP Buffer before being cultured in αMEM/1% FBS at 37° C. in 5% CO2.
(§2) All gene expression analyses were performed using real time PCR. DNAse I-treated total RNA was converted to cDNA with the SuperScript III kit (Invitrogen). Real-time PCR were performed using the Taq SYBR Green Supermix with ROX (Biorad) on an MX3000 instrument (Stratagene); beta-actin amplification was used as an internal reference for each sample. All primers were from SuperArray.
Experiments were performed to test whether truncated osteocalcin was as effective as full-length uncarboxylated osteocalcin in stimulating adiponectin secretion from mouse adipocytes in vitro. Wild type adipocytes were treated for 4 hours with recombinant full-length osteocalcin (1-46) or a truncated form (1-36) (having a deletion of the […] ten amino acids from the C-terminal end) or vehicle. Adiponectin expression was then quantified by real time PCR. […]

wild type osteoblasts = assay: Isoproterenol on wild type osteoblasts: mRNA levels by quantitative PCR; type: cell-based, mouse
Experimental: as §2
It was discovered that sympathetic nervous system (SNS) activity positively regulates Esp expression in osteoblasts. […] Thus, decreasing sympathetic activity should lead to a decrease in Esp expression and thereby to an increase in the undercarboxylated, active form of osteocalcin.

[1] = osteoporotic patients, cited from earlier work
WT adipocytes = assay: Adiponectin expression in WT adipocytes cocultured with warfarin-treated osteoblasts; type: cell-based, mouse; conditions: adipocytes cocultured with warfarin-treated vs vehicle-treated osteoblasts (FIG. 7J)
Description: as §1
Primary osteoblasts were prepared from calvaria of 5 day-old pups as previously described (Ducy et al., 2000a) and were cultured in αMEM/10% FBS in the presence of 100 μg/ml ascorbic acid and 5 mM β-glycerophosphate for 5 days. […]

osteoblasts = assay: Osteocalcin/hydroxyapatite (HA) binding assay on medium of warfarin-treated osteoblasts; type: cell-based, mouse
Experimental: Primary osteoblasts were prepared from calvaria of 5 day-old pups as previously described (Ducy et al., 2000a) and were cultured in αMEM/10% FBS in the presence of 100 μg/ml ascorbic acid and 5 mM β-glycerophosphate for 5 days. Skin fibroblasts were isolated by collagenase digestion (0.5 mg/ml) and were cultured in […]MEM/10% FBS. Twenty-four hours before addition of primary islets (or adipocytes), osteoblasts (or fibroblasts) were placed in αMEM/1% FBS. […] After 4 h of co-culture, either in the presence or absence of (1 μm) culture inserts (Falcon) islets (or adipocytes) were collected for RNA isolation using TRIZOL (Invitrogen).
Sera from 1 month-old mice, obese patients or supernatant from warfarin-treated osteoblast cultures were added to HA slurry to achieve a final concentration of 25 mg slurry/ml. After 15 min (mouse sera, supernatant) or 30 min (human sera), HA beads were pelleted by centrifugation and HA-bound osteocalcin was eluted with 0.5M sodium phosphate buffer, pH 8.0. Osteocalcin present in eluates and initial samples was measured by IRMA. Values represent percentage of HA-bound osteocalcin over initial osteocalcin content. Hauschka, P. V., et al., Physiol Review 69, 990-1047 (1989).
To determine whether this was the case, two additional experiments were performed. […] Second, carboxylated osteocalcin and bacterially produced mouse osteocalcin, which is not carboxylated, were used in cell-based assays. […] Lastly, we studied human obese patients that are hyperinsulinemic but not diabetic (FIG. 7M).

beta-cells = assay: Streptozotocin (STZ) injection in WT and Esp−/− mice: survival and blood glucose; type: in vivo, mouse; conditions: eight days after injection
Description: FIG. 3. Esp−/− Mice Are Protected from Obesity and Glucose Intolerance. A-F) Food intake per day (A), body weight curve (B), fat pad mass (C), serum triglyceride levels (D), GTT (E), and ITT (F) in 4-month-old WT and Esp−/− mice 3 months after GTG or vehicle injection. (G-I) Body weight curve (G), GTT (H), and ITT (I) in 3 month-old WT and Esp−/− mice fed a high fat diet for 6 weeks. (J and K) Serum insulin levels (J) and pancreatic insulin content (K) in 1-month-old WT and Esp−/− mice 8 days after STZ or vehicle injection. (L and M) Survival of mice (L) and change of blood glucose levels (M) in 1-month-old WT and Esp−/− mice during the 8 days following STZ injection. (N) Urinary glucose assays in 1-month-old WT and Esp−/− mice 8 days after STZ injection. In (A)-(F), (J), and (K): a, WT versus Esp−/−; b, WT+GTG (or STZ) versus WT+vehicle; c, WT+GTG (or STZ) versus Esp−/−+GTG (or STZ); d, Esp−/−+GTG (or STZ) versus Esp−/−+vehicle. In (G)-(I) and (M), *p<0.05 WT versus Esp−/−. In (A), (C), (D), (J), and (K), Student's t test, p<0.05 for a-d; in (B), (E)-(I), (L), and (M), ANOVA followed by post hoc analysis when number of groups >2, p % 0.001 for a-d.
For glucose tolerance test (GTT), glucose (2 g/kg body weight (BW)) was injected intraperitoneally (IP) after an overnight fast and blood glucose was monitored using blood glucose strips and the Accu-Check glucometer (Roche) at indicated times. For glucose stimulated insulin secretion test (GSIS), glucose (3 g/kg BW) was injected IP after an overnight fast; sera were collected from tails and insulin measured as described (Mauvais-Jarvis et al., 2000). For insulin tolerance test (ITT), mice were fasted for six hours, injected IP with insulin (0.2 U/kg BW) and blood glucose levels were measured at indicated times as described (Mauvais-Jarvis et al., 2002). ITT data are presented as percentage of initial blood glucose concentration. Gold thioglucose (600 mg/kg BW, USP) was injected IP after an overnight fast, mice were sacrificed 3 months later for analysis. Streptozotocin ([…] single injection, Sigma) was injected IP and blood glucose measured as described above every 2 days thereafter. After 8 days, pancreases were isolated to measure insulin content as previously described (Mauvais-Jarvis et al., 2000). Food intake was measured using metabolic cages as the daily change of food weight. Energy expenditure was measured using metabolic cages connected to a calorimeter (Columbus Instrument). Heat values (Kcal/Hr) were recorded over 2 days and reported to each mouse BW.
Whether the increase in insulin sensitivity could protect Esp−/− mice from pancreatic beta-cell failure was determined. […] Unlike STZ-treated WT mice, glucose could not be detected in urine of STZ-injected Esp−/− mice (FIG. 3N).

[2] = read-out: Kd to hydroxyapatite; cited from earlier work

O=C([O-])c1cc[c]([Hg][OH])cc1 [p-hydroxymurcuribenzoate (pHMB), p-hydroxymurcuribenzoate]
inhibition of gamma carboxylase (gamma carboxylase): inhibited

CCN1C(=O)C=CC1=O [N-ethylmaleimide (NEM), N-ethylmaleimide]
inhibition of gamma carboxylase (gamma carboxylase): inhibited

carboxylated osteocalcin: commercially available carboxylated osteocalcin (Immunotopics) (YLYQWLGAPVPYPDPLEPRREVCELNPDCDELADHIGFQEAYRRFYGPV; ends and bridges not checked; also: carboxylated (Gla) residues, sites not given here; UniProt P02818 52-100, looked up) [reference compound]
induction of adiponectin expression (Wild type adipocytes; WT adipocytes, 1 ng/ml (FIG. 7K)): failed to induce

CC(C)NCC(O)c1ccc(O)c(O)c1 (stereo not drawn) [isoproterenol]
expression of gamma-carboxylase (ggcx) (wild type osteoblasts): did not increase
expression of osteocalcin (wild type osteoblasts): did not increase
expression of vkor (wild type osteoblasts): did not increase
increase of Esp expression (wild type osteoblasts; at 8 hours): remains steady
increase of Esp expression (wild type osteoblasts; by 4 hours): about 80%

1-36 fragment of uncarboxylated osteocalcin: Recombinant truncated mouse osteocalcin (1-36), ten amino acids deleted from the C-terminal end (YLGASVPSPDPLEPTREQCELNPACDELSDQYGLKT; not fully specified; ends and bridges not checked; UniProt P86546 50-85, looked up, fragment)
Adiponectin expression increase (Wild type adipocytes; wild type adipocytes treated for 4 hours, real time PCR, vs vehicle): ~1.8 fold
potency in inducing adiponectin expression in vitro (Wild type adipocytes; wt adipocytes, 4 hours (FIG. 15 legend)): as potent as native osteocalcin

Vitamin K
percentage mean decrease in undercarboxylated osteocalcin ([1]; four weeks of treatment, vs controls without Vitamin K): 85%

CC(=O)CC(c1ccccc1)c1c(O)c2ccccc2oc1=O (stereo not drawn) [warfarin]
adiponectin expression induced by treated osteoblasts (WT adipocytes): significantly higher extent
percentage of osteocalcin bound to HA (osteoblasts; conditioned medium of warfarin-treated osteoblasts vs vehicle, 50 μM, 48 h, 15 min HA incubation): marked decrease
osteocalcin secreted by osteoblasts (osteoblasts; warfarin-treated osteoblasts (vehicle 10 ng/ml)): 2 ng/mL
levels of undercarboxylated osteocalcin produced by osteoblasts (osteoblasts; warfarin-treated vs vehicle-treated osteoblasts (FIG. 7I)): elevated

Vitamin D
effect on undercarboxylated osteocalcin ([1]; alone or together with Vitamin K): no significant effect

CN(N=O)C(=O)N[C@H]1C(O)O[C@H](CO)[C@@H](O)[C@@H]1O (mixture of isomers) [STZ, streptozotocin]
blood glucose level of surviving mice (beta-cells; STZ-treated Esp−/− mice): ≤ 250 mg/dL
mice died (beta-cells; STZ-treated Esp−/− mice): one
mice died (beta-cells; STZ-treated WT mice): 3 of the 7
serum glucose levels of surviving mice (beta-cells; STZ-treated WT mice): above 500 mg/dl

B1: Osteocalcin: normal (Gla-containing) osteocalcin, small vitamin K-dependent calcium binding protein; literature data (protein, listed as Homo sapiens)
chain: MRALTLLALLALAALCIAGQAGAKPSGAESSKGAAFVSKQEGSEVVKRPRRYLYQWLGAPVPYPDPLEPRREVCELNPDCDELADHIGFQEAYRRFYGPV
Kd [2]: ~100 nM

Reference: patent publication US9518976B2, “Methods for identifying or assaying for agents that increase beta-cell proliferation, insulin secretion, insulin sensitivity, glucose tolerance and decrease fat mass” (The Trustees of Columbia University in The City of New York, priority 2006, dated 2016)
